“And” between values parts separate entries of the source, which are not always exact repeats. Equal values may be shown once.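 A five-concentration, 48-hour dose response in 96-well plates underlies each endpoint, interpolated linearly between surrounding concentrations. The concentration for 50% growth inhibition is given as GI50. At the TGI there is no net growth.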 *1 amine or outer side, *2 acyl side, *3 side chain or, on linkers, in order; H or OH if unused. Where a SMILES comes first, the peptide text is derived from it. Bridges are numbered along the chain shown (N, C = ends). [ ]: non-standard residue; d: D form. The star is where a group is joined. X38 = CC[C@H](C)[C@@H](N[*:1])[C@@H](O)CC(=O)[*:2]; NMeY = CN[C@@H](Cc1ccc(O)cc1)C(=O)O; dNMeL = CN[C@H](CC(C)C)C(=O)O; Hiv = CC(C)[C@H](O)C(=O)O; Pyruvoyl = CC(=O)C(=O)*
How the values were obtained:
Test in all cases: inhibition of tumour cell growth, NCI panel, 48 h
EKVX NSCLC = system: EKVX NSCLC
HCT-15 colon = system: HCT-15 colon
IGROV1 ovarian = system: IGROV1 ovarian
K-562 leukemia = system: K-562 leukemia
MCF7 breast = system: MCF7 breast
NCI/ADR-RES ovarian = system: NCI/ADR-RES ovarian
SF-539 CNS = system: SF-539 CNS
SK-MEL-2 melanoma = system: SK-MEL-2 melanoma
U251 CNS = system: U251 CNS
UO-31 renal = system: UO-31 renal

SMILES | TGI (EKVX NSCLC) [µM] | TGI (HCT-15 colon) [µM] | TGI (IGROV1 ovarian) [µM] | TGI (K-562 leukemia) [µM] | TGI (MCF7 breast) [µM] | TGI (NCI/ADR-RES ovarian) [µM] | TGI (SF-539 CNS) | TGI (SK-MEL-2 melanoma) [µM] | TGI (U251 CNS) [µM] | TGI (UO-31 renal) [µM] | GI50 (EKVX NSCLC) [µM] | GI50 (HCT-15 colon) [µM] | GI50 (IGROV1 ovarian) [µM] | GI50 (K-562 leukemia) [µM] | GI50 (MCF7 breast) [µM] | GI50 (NCI/ADR-RES ovarian) [µM] | GI50 (SF-539 CNS) [µM] | GI50 (SK-MEL-2 melanoma) [µM] | GI50 (UO-31 renal) [µM]
COc1ccc(/C=C(\Cl)c2ccc(OC)c(OC)c2)cc1OC | > 100 | > 100 | > 100 | > 100 | > 100 | > 100 | > 100 µM | > 100 | > 100 | > 100 |  |  |  |  |  |  |  |  | 
COc1ccc(Br)c2c1CC(C(=O)O)CC2 (centres undefined) | > 100 | > 100 | > 100 | > 100 | > 100 | > 100 | > 100 µM | > 100 | > 100 | > 100 |  |  |  |  |  |  |  |  | 
CCOC(=O)/C(N=Nc1ccc(-n2c(C)nc3ccccc3c2=O)cc1)=C(/C)O | > 100 | > 100 | > 100 | > 100 | > 100 | 51.8 | > 100 µM | > 100 | > 100 | > 100 |  |  |  |  |  |  |  |  | 
C/C(=N\N)C(CN(C)C)C(c1ccccc1)c1c(O)c2ccccc2oc1=O (centres undefined) | > 100 | > 100 | > 100 | > 100 | > 100 | > 100 | > 100 µM | > 100 | > 100 | > 100 |  |  |  |  |  |  |  |  | 
O=c1c2cc(S(=O)(=O)Nc3ccccc3Cl)ccc2ncn1NS(=O)(=O)c1ccc(Br)cc1 | > 37.5 | > 37.5 | > 37.5 | > 37.5 | > 37.5 | > 37.5 | > 37.5 µM | > 37.5 | > 37.5 | > 37.5 |  |  |  |  |  |  |  |  | 
COc1ccccc1C1CC(=O)CC(c2ccccc2OC)C12C(=O)NC(=S)NC2=O (centres undefined) | > 100 | > 100 | > 100 | > 100 | > 100 | > 100 | > 100 µM | > 100 | > 100 | > 100 |  |  |  |  |  |  |  |  | 
CCOC(=O)c1nc2ccc(C(F)(F)F)cc2nc1NCc1ccc(Cl)c(Cl)c1 | > 100 | > 100 | 55.4 | > 100 | > 100 | > 100 | > 100 µM | > 100 | > 100 | > 100 |  |  |  |  |  |  |  |  | 
COc1cc2cc(C(=O)N3CC(CCl)c4c3cc(NC(=O)C(C)(C)c3ccccc3[N+](=O)[O-])c3ccccc43)[nH]c2c(OC)c1OC (centres undefined) |  |  |  |  |  |  | 14.5 µM and 74.9 µM |  | > 600 |  | 127 | 13.2 | 89.6 | 17.9 | 16.1 | 11.3 | 6.55 | 110 | 26.2
O=S1(=O)c2cnccc2NC(=NCc2cccc3ccccc23)N1c1ccccc1 | > 100 | > 100 | > 100 | > 100 | > 100 | > 100 | > 100 µM | > 30.5 | > 100 | > 100 |  |  |  |  |  |  |  |  | 
COC(=O)N1C[C@@]2(C=CC3(CC2)OCCO3)c2ccccc21 | > 100 | > 100 | > 100 | > 100 | > 100 | 95.6 |  | > 100 | > 100 | > 100 |  |  |  |  |  |  |  |  | 
O=C1c2cc3c(cc2CC12Cc1cc4c(cc1C2=O)CCCC4)CCCC3 | > 100 | > 100 | > 100 | > 100 | > 100 | > 100 | > 100 µM | > 100 | > 100 | > 100 |  |  |  |  |  |  |  |  | 
NCCCNCCCNCCCN | > 100 | > 100 | > 100 | 72.9 | > 100 | > 100 |  | > 100 | > 100 | > 100 |  |  |  |  |  |  |  |  | 
CC[C@H](C)[C@H]1NC(=O)[C@@H](NC(=O)[C@@H](CC(C)C)N(C)C(=O)[C@@H]2CCCN2C(=O)C(C)=O)[C@@H](C)OC(=O)[C@H](Cc2ccc(OC)cc2)N(C)C(=O)[C@@H]2CCCN2C(=O)[C@H](CC(C)C)NC(=O)[C@H](C(C)C)OC(=O)C[C@@H]1O (Pyruvoyl-P[dNMeL]T[X38][Hiv]LP[NMeY](Me); ester 3-C) | 0.0103 | 3.29 | 1.19 | 0.104 | 0.0599 | 4.77 | 0.0101 µM | 0.0255 | 0.154 | 0.137 |  |  |  |  |  |  |  |  | 
Cc1nn2c(=O)c([N+](=O)[O-])c(/C=C/c3ccccc3)nc2s1 | > 29.8 | 12.3 | > 67.8 | > 26.7 | 8.86 | > 53 | 5.89 µM | 12.4 | 7.99 | > 54 |  |  |  |  |  |  |  |  | 
COc1ccc(OC)c2sc(N3C(=O)/C(=C/Cc4ccco4)N=C3c3ccccc3)nc12 | > 100 | > 100 | > 100 | > 100 | 35.7 | > 100 | > 100 µM | 67.3 | 54.1 | 80.8 |  |  |  |  |  |  |  |  | 
Oc1ccccc1/C=N/Nc1nnc2c3ccccc3c3ccccc3c2n1 | > 100 | > 100 | > 100 | > 100 | > 100 | > 100 | > 100 µM | > 100 | > 100 | > 100 |  |  |  |  |  |  |  |  | 
c1csc(-c2cscc2-c2ccsc2)c1 | > 100 | > 100 | > 100 | > 100 | > 83.5 | > 100 | > 93.5 µM | > 100 | > 100 | > 100 |  |  |  |  |  |  |  |  | 

From PubChem BioAssay (NCI)
